The source of these data is patent publication US10759799B2, “Indazole containing macrocycles and therapeutic uses thereof” (Samumed, LLC, priority 2018, dated 2020).

Test [1] has as its target recombinant DYRK1A kinase (Homo sapiens (Human), UniProt Q13627). As to the kind of experiment: DYRK1A kinase assay (Ser/Thr 18 peptide Z-lyte, FRET). The test is classed as biochemical. As to conditions: 30 μM ATP, one hour at room temperature, read-out: EC50 (μM) (IC50 per method). The source says: Representative compounds were screened using the assay procedure for DYRK1A kinase activity as described below.
The DYRK1A kinase assay was run using the Ser/Thr 18 peptide Z-lyte assay kit according to manufacturer's instructions (Life Technologies—a Division of Thermo-Fisher). This is a non-radioactive assay using fluorescence resonance energy transfer (FRET) between coumarin and fluorescein to detect kinase activity which is represented as a ratio of coumarin emission/fluorescein emission.
Briefly, recombinant DYRK1A kinase, ATP and Ser/Thr peptide 18 were prepared in 1× Kinase buffer to final concentrations of 0.19 μg/mL, 30 μM, and 4 μM respectively. The mixture was allowed to incubate with the representative compounds for one hour at room temperature. All reactions were performed in duplicate. Unphosphorylated (“0% Control”) and phosphorylated (“100% control”) forms of Ser/Thr 18 served as control reactions. Additionally, an 11-point dose-response curve of Staurosporine (1 uM top) was run to serve as a positive compound control.
After incubation, Development Reagent A was diluted in Development Buffer then added to the reaction and allowed to further incubate for one hour at room temperature. The plate was read at Ex 400 Em 455 to detect the coumarin signal and Ex 400 Em 520 to measure the signal (EnVision Multilabel Plate Reader, PerkinElmer).
The Emission ratio (Em) was calculated as a ratio of the coumarin (C) emission signal (at 445 nm)/Fluorescein (F) emission signal (at 520 nm). The percent phosphorylation was then calculated using the following formula: [1−((Em ratio×F100%)−C100%)/((C0%−C100%)+(Em ratio×(F100%−F0%)))].

A further test concerns the target recombinant GSK3β kinase (Homo sapiens (Human), UniProt P49841). As to the kind of experiment: GSK3β kinase assay (Ser/Thr 09 peptide Z-lyte, FRET). As to conditions: 46 μM ATP, one hour at room temperature, read-out: EC50 (μM) (IC50 per method). Type of test: biochemical. The source says:
Representative compounds were screened using the assay procedure for GSK3β kinase activity as described below.
The GSK3β kinase assay is run using the Ser/Thr 09 peptide Z-lyte assay kit according to manufacturer's instructions (Life Technologies—a Division of Thermo-Fisher). This is a non-radioactive assay using fluorescence resonance energy transfer (FRET) between coumarin and fluorescein to detect kinase activity which is represented as ratio of coumarin emission/fluorescein emission.
Briefly, recombinant GSK3β kinase, ATP and Ser/Thr peptide 09 are prepared in 1× Kinase buffer to final concentrations of 0.04 μg/mL, 46 μM, and 4 μM respectively. The mixture is allowed to incubate with the representative compounds for one hour at room temperature. All reactions were performed in duplicate. Unphosphorylated (“0% Control”) and phosphorylated (“100% control”) forms of […] serve as control reactions.
After incubation, diluted Development Buffer is added to the reaction and allowed to further incubate for one hour at room temperature. The plate is read at Ex 400 Em 455 to detect the coumarin signal and Ex 400 Em 520 to measure the signal (EnVision Multilabel Plate Reader, PerkinElmer).
The Emission ratio (Em) is calculated as a ratio of the coumarin (C) emission signal (at 445 nm)/Fluorescein (F) emission signal (at 520 nm). The percent phosphorylation is then calculated using the following formula: [1−((Em ratio×F100%)−C100%)/((C0%−C100%)+(Em ratio×(F100%−F0%)))].
Dose-response curves are generated and inhibitory concentration (IC50) values are calculated using non-linear regression curve fit in the Dotmatics' Studies Software (Bishops Stortford, UK).

The test system of test [2] is SW480 colon carcinoma cells. As to the kind of experiment: Cell viability assay (CellTiter-Glo) in SW480 cells. Type of test: cell-based. As to conditions: Homo sapiens; for EC50: 96 h, SW480 cell viability, four days, CellTiter-Glo; for inhibition at 10 µM: SW480, read-out: percent inhibition at 10 μM. How it is done:
Representative compounds were screened using the assay procedure to assess the effect on cell viability as described below.
SW480 colon carcinoma cells were transduced with a lentiviral vector expressing luciferase with a human Sp5 promoter consisting of a sequence of eight TCF/LEF binding sites. SW480 cells stably expressing the Sp5-Luc reporter gene and a hygromycin resistance gene were selected by treatment with 150 μg/mL of hygromycin for 7 days. These stably transduced SW480 cells were expanded in cell culture and used for all further screening activities.
For the Cell Viability Assays, the cells were plated at 2,000 cells/well in 384-well plates with a DMEM medium containing 1% fetal bovine serum, and 1% Penicillin-Streptomycin and incubated for […] at 37° C. and 5% CO2. Eight replicates of DMSO-treated cells served as controls and cells treated with compound were performed in duplicate.
After incubation, 10 μL of CellTiter-Glo (Promega) was added to each well allowed to incubate for approximately 12 minutes. This reagent “results in cell lysis and generation of a luminescent signal proportional to the amount of ATP present. The amount of ATP is directly proportional to the number of cells present in culture, in agreement with previous reports. The CellTiter-Glo Assay generates a “glow-type” luminescent signal, produced by the luciferase reaction (Promega.com)”.

A further test concerns IL-6. As to the kind of experiment: IL-6 inhibition in LPS-stimulated human PBMCs (HTRF). As to conditions: PBMC; for EC50: huPBMCs, LPS 50 ng/mL, 22 hours, IL-6 HTRF; for inhibition at 10 µM: read-out: percent inhibition at 10 μM. Type of test: cell-based. As to the method:
Fresh Normal PB MNC (Catalog # PB001, AllCells, Alameda, Calif.) were shipped overnight at 4° C. and resuspended in Roswell Park Memorial Institute (RPMI) 1640 Medium, with GlutaMAX Supplement (Catalog #61870127, ThermoFisher Scientific, Waltham, Mass.) supplemented with 1% Penicillin-Streptomycin (Catalog #15140163, ThermoFisher Scientific, Waltham, Mass.) and 1% fetal bovine serum (FBS) (Catalog #16140089, ThermoFisher Scientific, Waltham, Mass.) assay media.
Compound Screening: Fresh normal human peripheral blood mononuclear cells (huPBMCs) were resuspended in 1% FBS-RPMI assay media with 1% Penicillin-Streptomycin 1% to a cell concentration of 1×10e6 cells/mL. […] 50 ng/mL of Lipopolysaccharides from Escherichia coli 0111:B4 (Catalog # L5293-2ML, Sigma-Aldrich, St. Louis, Mo.) was added after 2 hours and cells were incubated for another 22 hours at 37° C.-5% CO2. After 22 hour incubation, a mixture of anti-IL6 XL665 and anti-IL-6 Cryptate diluted in reconstitution buffer (Catalog #62IL6PEC, Cisbio Inc., Bedford, Mass.) was added to each well. Following incubation for 3 hours at room temperature, Homogeneous Time-Resolved Fluorescence (HTRF) was measured using the Envision (Perkin Elmer, Shelton, Conn.) at 665 nm and […]. The ratio of fluorescence at 665 nm to 620 nm was used as a readout for IL-6 quantification. All samples were processed in duplicate. Readings were normalized to DMSO treated cells and normalized activities were utilized for EC50 calculations. EC50 was determined using software generated by Dotmatics Limited (Windhill Bishops Stortford Herts, UK) using the Levenberg-Marquardt 4 parameter fitting procedure with finite different gradients.
In general terms: In TR-FRET formats the signal depends on donor and acceptor labels being close together.

Sequence of recombinant GSK3β kinase (P49841 whole entry): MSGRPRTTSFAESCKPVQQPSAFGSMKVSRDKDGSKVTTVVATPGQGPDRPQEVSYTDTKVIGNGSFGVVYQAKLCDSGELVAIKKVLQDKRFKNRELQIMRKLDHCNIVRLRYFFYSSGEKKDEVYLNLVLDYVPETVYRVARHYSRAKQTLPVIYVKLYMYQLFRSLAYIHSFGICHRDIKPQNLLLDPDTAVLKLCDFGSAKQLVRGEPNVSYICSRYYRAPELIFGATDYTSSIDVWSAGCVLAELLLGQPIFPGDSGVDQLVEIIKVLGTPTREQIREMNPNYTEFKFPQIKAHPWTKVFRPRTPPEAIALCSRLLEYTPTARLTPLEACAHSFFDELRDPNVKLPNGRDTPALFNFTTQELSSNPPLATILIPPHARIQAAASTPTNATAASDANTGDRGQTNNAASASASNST

In the case of `CN1CCCCN(C)c2nccc3[nH]c(nc23)-c2n[nH]c3ccc(cc23)-c2cncc(c2)C1` [Compound 51, (Z)-5,10-Dimethyl-1H,2^1H-5,10-diaza-1(2,4)-imidazo[4,5-c]pyridina-2(3,5)-indazola-3(3,5)-pyridinacyclodecaphane], the IC50 (in test [1]; on recombinant GSK3β kinase) was 0.002 µM each time. Further, the EC50 came out at 515 nM in test [2] and 414 nM in the test on IL-6.
`CN1Cc2cncc(c2)-c2ccc3[nH]nc(c3c2)-c2nc3c(cccc3[nH]2)-c2cccc(c2)C1` [Compound 22, (Z)-6-Methyl-2^1H,3^1H-6-aza-2(5,3),3(2,4)-diindazola-1(3,5)-pyridina-4(1,3)-benzenacycloheptaphane]: the figures for the IC50 (in test [1]; on recombinant GSK3β kinase) were 0.068 µM and 0.011 µM, respectively. Besides, the EC50 was determined as 14 nM in test [2] and 161 nM in the test on IL-6.
With `CN1CCCn2cc(nn2)-c2cncc3[nH]c(nc23)-c2n[nH]c3ccc(cc23)-c2cncc(c2)C1` [Compound 45, (1^4Z,2^1Z)-6-Methyl-1 ^1H,2^3H,3^1H-6-aza-2(7,2)-imidazo[4,5-c]pyridina-3(3,5)-indazola-4(3,5)-pyridina-1(4,1)-triazolacyclononaphane], the IC50 is 0.004 µM in test [1] and 0.001 µM on recombinant GSK3β kinase. Also, the EC50 (in test [2]; in the test on IL-6) was over 10000 nM throughout. In addition, the values for the inhibition at 10 µM (in test [2]; with IL-6) were 44.1% and 5.9%, respectively.
Consider `c1cc2cc(c1)-c1cncc3[nH]c(nc13)-c1n[nH]c3ccc(cc13)-c1cncc(c1)CNC2` [Compound 8, (Z)-2^3H,3H-6-Aza-2(7,2)-imidazo[4,5-c]pyridina-3(3,5)-indazola-4(3,5)-pyridina-1(1,3)-benzenacycloheptaphane], for which the IC50 in test [1] was found to be 0.003 µM; on recombinant GSK3β kinase it was 0.001 µM. Also, the values for the EC50 (in test [2]; in the test with IL-6) were 49 nM and 65 nM, respectively.
Consider `O=C1CCc2cccc(c2)-c2cccc3[nH]c(nc23)-c2n[nH]c3cnc(cc23)-c2cncc(c2)N1` [Compound 6, (Z)-2^1H,3^1H-8-Aza-2(5,3)-pyrazolo[3,4-c]pyridina-3(2,4)-benzo[d]imidazola-1(3,5)-pyridina-4(1,3)-benzenacyclooctaphan-7-one], for which the values for the IC50 (in test [1]; at recombinant GSK3β kinase) were 0.096 µM and 0.004 µM, respectively. The EC50 in test [2] was 142 nM; in the test on IL-6, over 10000 nM. Also, the inhibition at 10 µM in the test on IL-6 turned out to be 9.5%.
Regarding `O=C1CCc2cccc(c2)-c2cccc3[nH]c(nc23)-c2n[nH]c3ccc(cc23)-c2cncc(c2)N1` [Compound 1], the IC50 stood at 0.266 µM in test [1] and 0.007 µM at recombinant GSK3β kinase. In addition, the EC50 in test [2] was determined as 94 nM; in the test on IL-6, 381 nM.
For `c1cc2cc(c1)-c1cccc3[nH]c(nc13)-c1n[nH]c3ccc(cc13)-c1cncc(c1)CNC2` [Compound 10, (Z)-2^1H,3^1H-6-Aza-2(5,3),3(2,4)-diindazola-1(3,5)-pyridina-4(1,3)-benzenacycloheptaphane], the IC50 in test [1] was determined as 0.018 µM; at recombinant GSK3β kinase, 0.004 µM. For the same compound, the EC50 in test [2] was determined as 26 nM; with IL-6, 135 nM.
Consider `O=C1CCc2cccc(c2)-c2cccc3[nH]c(nc23)-c2n[nH]c3ncc(cc23)-c2cncc(c2)N1` [Compound 5, (Z)-2^1H,3^1H-8-Aza-2(5,3)-pyrazolo[3,4-b]pyridina-3(2,4)-benzo[d]imidazola-1(3,5)-pyridina-4(1,3)-benzenacyclooctaphan-7-one], for which the IC50 turned out to be 0.709 µM in test [1] and 0.048 µM on recombinant GSK3β kinase. In addition, the EC50 was 407 nM in test [2] and over 10000 nM in the test on IL-6. Moreover, the inhibition at 10 µM in the test with IL-6 stood at 9.2%.
`O=C1CCc2cccc(c2)-c2nccc3[nH]c(nc23)-c2n[nH]c3ccc(cc23)-c2cncc(c2)N1` [Compound 2, (Z)-2^1H,3^1H-5-Aza-2(4,2)-imidazo[4,5-c]pyridina-3 (3,5)-indazola-4(3,5)-pyridina-1(1,3)-benzenacyclooctaphan-6-one]: the IC50 in test [1] stood at 0.006 µM; on recombinant GSK3β kinase it was 0.001 µM. Also, the EC50 in test [2] was found to be 80 nM; in the test with IL-6 it was 3820 nM.
For `CN1Cc2cccc(c2)-c2cccc3[nH]c(nc23)-c2n[nH]c3ccc(cc23)-c2cnn(C)c2C1` [Compound 29], the IC50 in test [1] turned out to be 0.412 µM; on recombinant GSK3β kinase, 0.015 µM. In addition, the EC50 in test [2] stood at 170 nM; with IL-6, 241 nM.
With `O=C1NC2CCC(CC2)NCc2cncc(c2)-c2ccc3[nH]nc(c3c2)-c2nc3c1cccc3[nH]2` [Compound 64, (6^1s,6^4s,Z)-1^1H,2^1H-5,7-diaza-1 (2,4),2(3,5)-dibenzo[d]imidazola-3(3,5)-pyridina-6(1,4)-cyclohexanacyclooctaphan-8-one], the figures for the IC50 (in test [1]; on recombinant GSK3β kinase) were 0.448 µM and 0.088 µM, respectively. Also, the EC50 (in test [2]; in the test on IL-6) was over 10000 nM in each case. For the same compound, the inhibition at 10 µM is 15.8% in test [2] and 12.7% in the test with IL-6.
Regarding `O=C1CCc2cccc(c2)-c2cncc(c2)NC(=O)c2n[nH]c3ccc(cc23)-c2cncc(c2)CN1` [Compound 97, 2^1H-4,10-diaza-2(5,3)-indazola-1,5(3,5)-dipyridina-6(1,3)-benzenacycloundecaphane-3,9-dione], the IC50 in test [1] was determined as 0.009 µM; at recombinant GSK3β kinase, 0.01 µM. Further, the EC50 (in test [2]; with IL-6) was over 10000 nM throughout. In addition, the inhibition at 10 µM in test [2] came to 25%; in the test with IL-6, 25.7%.

As usually defined, the IC50 is the concentration that inhibits the measured activity by half. The EC50 is the concentration giving half of the maximal effect. As usually defined, the inhibition is the relative decrease from the control value, in per cent.
